From a melting point compilation (Tetko et al.; mined from patent text by program, amines drawn as free bases though some values may be those of a salt) come the findings set out here.

Each structure is given as a SMILES string.

The melting point is the temperature, or range, at which the solid turns liquid. In the case of `O=C(CCCCN1CCCC1)NNC(=O)N1Cc2ccccc2Oc2ccc(Cl)cc21`, the melting point was in the range of 133 to 135 °C.

On to `C=CCn1c2ccccc2c2ccccc21`, for which the melting point fell in the range of 52 to 54 °C.

`Cc1ccc(S(=O)(=O)ON=C(C#N)c2ccc(F)cc2)cc1` came in with a melting point of 129 to 140 °C.

Consider `CNc1c(NCCNCc2ccc(CN3CCCCC3)o2)c(=O)c1=O`, for which the melting point is 145 to 147 °C.

`O=C(O)/C=C/c1cc([N+](=O)[O-])ccc1O`: the melting point is 265 to 267 °C.

Turning to `Cc1ccc2c3c(ccc2n1)OC[C@H](CN1CCN(c2cccc4c2OCCO4)CC1)O3`, the melting point lay within 154 to 155 °C.

Take `COCc1ccc(Oc2cc(OC3CCOCC3)c3[nH]c(C4=NCC(CC(C)(C)O)S4)cc3c2)cn1` (stereo not given): the melting point fell in the range of 108 to 110 °C.

The compound `O=S(=O)(CC(O)(CBr)c1cccc(F)c1)c1ccccc1Cl` (stereo not given) registered a melting point of 121 °C.

Compound `O=C(NC1(C2CC2)CC1)c1c(NC(=O)c2cc(C(F)(F)F)nn2-c2ncccc2Cl)c(Cl)cc2cn[nH]c12` returned a melting point greater than 250 °C.

On to `O=C(Cc1noc2ccccc12)NS(=O)(=O)C1CC1`, for which the melting point was in the range of 147 to 148 °C.

In turn, `COC(=O)c1cccc(-c2nc(C(N)=O)c3[nH]c(=O)n(-c4ccccc4OC)c3n2)c1` showed a melting point of 265 to 266 °C.

The compound `COc1cc(OS(=O)(=O)c2ccc(N3CCN(C)C3=O)cc2)cc(OC)c1OC` returned a melting point of 160 to 162 °C.

With `CNc1nc(-c2cncc(Br)c2)c2cc(OC)c(OC)cc2n1`, the melting point was in the range of 228 to 230 °C.

In turn, `CC(C)CC(CS)C(=O)Nc1cccc(C(=O)O)c1` (stereo not given) came in with a melting point greater than 200 °C.

`C=CCNc1nc(C)cc(C)n1` gave a melting point of 62 to 63 °C.

`CC1(C)CC(C)(O)C2CCC2(C)C1` (stereo not given) came in with a melting point of 54 to 55 °C.

With `O=C1CN(Cc2ccccc2)c2cc(Br)ccc2N1`, the melting point fell in the range of 174 to 176 °C.

In turn, `CC(=O)c1ccc(CNC(=O)OC(C)(C)C)cc1` registered a melting point of 73 to 75 °C.

`Cn1c2ccccc2c(=O)c2c(-c3cccc(O)c3)c(Cl)cc(Cl)c21` returned a melting point of 220 to 222 °C.

Compound `CCCCCCCCCCCCc1c[nH]c2cc(C(=O)O)ccc12` yielded a melting point of 181 to 184 °C.

Compound `CN(C)c1ccc(C(N)P(O)O)cc1` (stereo not given) returned a melting point of 223 to 224 °C.

Compound `CN1CCN(C(=O)C(=O)Nc2cc(C#N)ccc2O)CC1` had a melting point of 256 °C.

Consider `CCOC(=O)Cn1c(=O)n(Cc2ccc(Cl)cc2)c(=O)c2c(C)c(C)sc21`, for which the melting point is 151 to 152 °C.

In the case of `Cc1ccc(S(=O)(=O)NC(CSCC(=O)O)C(=O)O)cc1` (stereo not given), the melting point is 152 °C.

For the compound `O=C(O)CSc1ccc(-n2cc(C3c4ccccc4C=Cc4ccccc43)c(=S)[nH]c2=O)nn1`, the melting point lay in the range of 248 to 250 °C.

Compound `CC(=O)OCCC(=C(c1ccccc1)c1ccccc1)c1ccccc1` gave a melting point of 81 to 83 °C.

The compound `CCN1c2ncccc2C(OS(C)(=O)=O)Nc2c(C)cc(C)nc21` (stereo not given) registered a melting point of 154 to 155 °C.

Compound `O=C(NC1=NCCS1)c1cnc2c(C(F)(F)F)cccc2c1O` yielded a melting point of 267 to 268 °C.

The compound `Oc1ccc2cnccc2c1` gave a melting point of 218 to 220 °C.

In the case of `O=C(C=Cc1cccc(Cl)c1)C=Cc1cccc(Cl)c1`, the melting point was in the range of 120 to 121 °C.

On to `Cc1nc(N2CCN(Cc3cccc(C(=O)O)c3)C2=O)sc1C(=O)NCc1ccccc1`, for which the melting point lay in the range of 120 to 123 °C.

On to `COC(=O)C[C@H](Cc1ccccc1)NC(=O)OCC(C)C`, for which the melting point was 50 to 52 °C.

`Cc1cc(-c2cc(F)c(F)cc2-c2ccc(S(C)(=O)=O)cc2)ccc1Cl` came in with a melting point of 152 °C.

`Nc1cc([N+](=O)[O-])cnc1Nc1ccccc1F`: the melting point is 171 to 172 °C.

In the case of `Cc1ccc2c(c1)c1cc(-c3ccc(OCC#N)cc3)c(=O)n(C)c1n2C`, the melting point was in the range of 195 to 196 °C.

Turning to `Cc1ccc(N)c(C(=O)CS(C)=O)c1` (stereo not given), the melting point is 145 to 147 °C.

In turn, `CC(C)(C)c1cc(C(=O)O)cc(I)c1O` gave a melting point of 178 °C.

With `COc1ccc2cc([C@H](C)C(=O)OCCCN3C(=O)OC[C@H]3C(C)(C)S)ccc2c1`, the melting point was determined as 118 °C.

For the compound `c1ccc(CSc2nc3nc(-c4ccccc4)cc(-c4ccccc4)n3n2)cc1`, the melting point lay in the range of 122 to 124 °C.

For `c1ccc([C@H]2C[C@@H]2Nc2cc(-c3ccco3)nc(-c3nccs3)n2)cc1` (relative stereo), the melting point is 90 to 91.9 °C.

In the case of `O=P(Cc1ccccc1)(C1CCCCC1)C1CCCCC1`, the melting point lay in the range of 147 to 149 °C.

`Cc1c(CNC2CCCC2)[nH]c2c(C)c(NC(=O)c3ccc(OC[C@@H]4CCCO4)cc3)ccc12` yielded a melting point of 107 to 109 °C.

`COc1cc(Nc2c(C#N)cnc3cc(-c4ccc(CN5CCOCC5)cc4)sc23)c(Cl)cc1Cl` gave a melting point of 244 to 245 °C.

Take `COC(=O)c1cc(-c2nc(COc3ccc(C=O)cc3OC)c(C)o2)ccc1C`: the melting point is 136 to 137 °C.

`COC(=O)[C@@H]1CSC(=S)N1CC(C)(C)S` registered a melting point of 126 to 127 °C.

`CCCCCCCCCCCC1N(C(C)=O)c2ccccc2-c2c([N+](=O)[O-])cnn21` (stereo not given) came in with a melting point of 83 to 85 °C.

Regarding `CC(C)(C)OC(=O)Nc1cc(N2CCC(OC3CCCCO3)CC2)c(-c2ccc(F)cc2)cc1N` (racemic), the melting point was 157 to 161 °C.

For the compound `COc1cc2c(cc1Nc1ncc(Cl)c(N[C@H]3[C@@H](C(N)=O)[C@@H]4C=C[C@H]3C4)n1)CCN(C[C@H](O)C(F)(F)F)CC2`, the melting point fell in the range of 120 to 126 °C.

As for `N#Cc1ccc2[nH]cc(C3=CCN(CC4COc5cccnc5O4)CC3)c2c1` (stereo not given), the melting point came out at 165 °C.

Compound `COCCCn1nnnc1-c1cc(-c2cccc(C)c2)c(O)cc1O` came in with a melting point of 137 to 140 °C.

Compound `C#CC(C)Oc1cc(Cl)ccc1-n1c(=O)cc(C(F)(F)F)n(C)c1=O` (stereo not given) showed a melting point of 96 to 99 °C.

Regarding `O[C@@H]1CNCC[C@H]1Oc1ccc(F)cc1` (relative stereo), the melting point fell in the range of 121 to 123 °C.

In the case of `CCCCc1ccc(NC=NO)c(C)c1`, the melting point lay in the range of 132 to 134 °C.

Turning to `CCc1cc(C)cc(CC)c1C1C(=O)C2CC(C3OCCCO3)CC2C1=O` (stereo not given), the melting point was 100 to 101 °C.

`CCOC(=O)COc1ccc(SCc2cccc3[nH]c(-c4ccc(C(F)(F)F)cc4)cc23)cc1C` came in with a melting point of 85 to 88 °C.

`NCCOc1cccc2c1c1cccc(F)c1n2Cc1ccccc1` had a melting point of 122 to 123 °C.

For `Cc1nc2c3c(c(C(=O)N4CC(O)C4)cc2n1C)CCC1(Cc2ccccc2C1)N3`, the melting point fell in the range of 171 to 172 °C.

In turn, `CCCCN1CCC(NS(=O)(=O)c2ccc(NC(C)=O)cc2)CC1` showed a melting point of 174 to 175 °C.

Turning to `CC1SC(=O)NN=C1c1ccc2c(c1)C(C)(C)CC(=O)N2` (stereo not given), the melting point turned out to be 288 °C.

On to `Nc1c(CCO)cc(Cl)cc1C(O)c1ccccc1` (stereo not given), for which the melting point was in the range of 130 to 132 °C.

For the compound `O=c1ncc(C(F)(F)F)c[nH]1`, the melting point was found to be 154 °C.

The compound `COc1ccc(S(=O)(=O)C(C)(Cc2ccc3ccccc3c2)C(=O)NO)cc1` (stereo not given) yielded a melting point of 185 to 187 °C.

`CC(=O)c1c(O)cccc1OCC(O)COc1ccc(F)cc1` (stereo not given) displayed a melting point of 111 to 113 °C.

For `CC(=O)NC[C@@H]1C[C@H]1c1cccc2nn(C)c(F)c12` (relative stereo), the melting point lay within 109 to 111 °C.

Turning to `COc1ccc(-c2c(Cl)c(CN3C(=O)COC3=O)nc3sc4c(c23)CCC(C(=O)O)C4)cc1` (stereo not given), the melting point is 218 to 219 °C.

`CCN1c2ncc(CNc3cccc(N)c3)cc2C(=O)N(C)c2ccc(Cl)nc21`: the melting point lay in the range of 188 to 190 °C.

`CCOC(=O)c1ccc(C=CC2(O)CN3CCC2CC3)cc1` (stereo not given) yielded a melting point of 160 to 162 °C.

Consider `CS(=O)(=O)c1ccc(-c2cccn3nc(N)nc23)cc1`, for which the melting point lay in the range of 236 to 239 °C.

Regarding `CC1(C)OC(=O)Nc2ccc(-c3cc(F)cc([N+](=O)[O-])c3)cc21`, the melting point fell in the range of 260 to 261 °C.

The compound `CN(C(=O)Oc1cccc2c1OC(C)(C)C2)C(=O)N1CCCCC1` gave a melting point of 98 to 100 °C.

As for `CCNc1c(C(=O)OCC)c(C)nc(OCC)c1[N+](=O)[O-]`, the melting point fell in the range of 40 to 42 °C.

On to `Oc1ccc2c(c1)CCc1c-2cc2ccc(O)cc2c1C1CCCC1`, for which the melting point lay within 233 to 235 °C.

With `O=C(c1ccc(CNc2nc(-c3ccccc3)nc3ccccc23)cc1)N1CCN(c2ncc(Cc3ccccc3)cn2)CC1`, the melting point lay in the range of 216 to 217 °C.

The compound `CCSc1oc2ccccc2c(=S)c1C#N` yielded a melting point of 175 to 179 °C.

Turning to `O=Cc1cccnc1Oc1ccc(F)cc1`, the melting point is 61 to 62 °C.

`COC(=O)c1cc2c(C)ccc(Cl)c2[nH]1` registered a melting point of 133 to 134 °C.

Compound `COC(=O)N(C1c2ccccc2-c2ccccc21)[C@H]1[C@H](C(=O)O)C[C@H]2C[C@@H]1C2(C)C` returned a melting point of 155 to 157 °C.

Compound `COc1cccc2c1C(=O)C(Br)=C(Br)C2=O` registered a melting point of 190 °C.

For `CC(C(=O)O)c1ccc(C=C2CCCC2=O)cc1` (stereo not given), the melting point fell in the range of 106 to 107 °C.

Consider `O=C1c2c(Cl)cccc2-n2cnc(-c3noc(CN4CCCCC4)n3)c2[C@@H]2CCN12`, for which the melting point is 177 to 179 °C.

As to `COc1cc2occ(-c3ccccc3)c(=O)c2c(Cl)c1Cl`, the melting point was in the range of 216 to 218 °C.

In turn, `CN1C(=O)OC[C@H]1Cc1ccccc1` registered a melting point of 75 to 77 °C.

In turn, `CCC(=O)N1N=C(c2ccc([N+](=O)[O-])c(C)c2)c2cc3c(cc2CC1(C)C#N)OCO3` (stereo not given) displayed a melting point of 191 to 193 °C.

Compound `CCCn1c(=O)c2[nH]c(CCCc3ccccc3)nc2n(CCC)c1=O` returned a melting point of 137 to 138 °C.

`CSc1ccc2cc(C(=O)c3ccccc3)cc(CCNC(C)=O)c2c1` came in with a melting point of 126 to 128 °C.

`CC(C)C(S)C(=O)NC1(C(=O)NC(Cc2ccc(-c3ccccc3)nc2)C(=O)O)CCCC1` (stereo not given) registered a melting point of 208 to 211 °C.

Take `CN(C)c1ccc2c(c1)C(=O)C(n1ccnc1)CC2` (stereo not given): the melting point lay in the range of 160 to 162 °C.

Take `Oc1cc(C(F)(F)F)nn1-c1ccccc1`: the melting point lay within 190 to 192 °C.

Regarding `NC(=O)C1=CCCc2cc(Sc3cccc(F)c3)cc(F)c21`, the melting point was 213 to 214 °C.

Turning to `CC(=O)Nc1ccc(-c2nnn(-c3ccc(C(F)(F)F)cc3F)c2N)cc1`, the melting point is 115 to 116 °C.
